Measured values from patent US7572376B2, “Process for producing 1,3-propanediol” (Tate & Lyle Ingredients Americas, Inc., priority 2003, dated 2009).

Experiments:
[1] = log P=[solute]octanol/[solute]water; cited from earlier work
[2] = solvent screen: PDO mixture with single solvents, distribution between solvent and aqueous phase; type: physicochemical; settings: 30° C.; for Distribution Coefficient Glucose / Distribution Coefficient Glycerol / Distribution Coefficient PDO: conc. in solvent phase / conc. in aqueous phase, aqueous solution 46% w/v PDO, 3.5% glycerol, […] glucose; for Selectivity PDO/Glycerol: distribution coefficient of PDO divided by that of glycerol
Experimental: 10 g of an aqueous solution containing 46% w/v PDO, 3.5% glycerol and 2.9% glucose was heated to 30° C. and the required solvent added in very small quantities until a cloudiness just began to develop. Additional solvent (about 1 g) was added and thoroughly mixed. The mixture was allowed to settle for 10 minutes and then centrifuged to achieve complete phase separation. The two phases (solvent and aqueous) were analyzed.

Row | SMILES | hydrophobic parameter log P [1] | Distribution Coefficient Glucose [2] | Distribution Coefficient Glycerol [2] | Distribution Coefficient PDO [2] | Selectivity PDO/Glycerol [2] | also measured
1 | CC(O)CO (stereo not shown) [1,2 PDO] | −1.003 | – | – | – | – | –
2 | OCCCCO [1,4 butanediol] | −1.384 | – | – | – | – | –
3 | CC(=O)CC(C)C [4-Methyl Pentan-2-one] | – | 0.001 | 0.008 | 0.033 | 4.03 | –
4 | CCCCO [Butan-1-ol] | – | – | – | – | – | phase formation on adding solvent to the aqueous PDO solution [2]: Only one liquid phase formed
5 | CCCCCCCC/C=C\CCCCCCCC(=O)O [Oleic acid] | – | 0.241 | 0.002 | 0.009 | 5.23 | –
6 | CCCCCCCC/C=C\CCCCCCCCO [Oleyl Alcohol] | – | 0.001 | 0.024 | 0.038 | 1.60 | –
7 | CCCCCO [Pentan-1-ol] | – | 0.256 | 0.417 | 0.609 | 1.46 | –
8 | CCCCCCCCCC [decane] | 5.98 | – | – | – | – | –
9 | CCCCCCCCCCCCO [dodecanol] | 5.0 | – | – | – | – | –
10 | CCOC(C)=O [ethyl acetate] | 0.68 | – | – | – | – | –
11 | OCC(O)CO [glycerol] | −2.08 | – | – | – | – | –
12 | CCCCCCC [heptane] | 4.0 | – | – | – | – | –
13 | CCCCCCCO [heptanol] | 2.4 | – | – | – | – | –
14 | CC(=O)OC(C)C [isopropyl acetate] | – | 0.001 | 0.005 | 0.024 | 5.17 | –
15 | CCCCCCCC [octane] | 4.5 | – | – | – | – | –
16 | CCCOC(C)=O [propyl acetate] | 1.2 | – | – | – | – | –
